Source: patent US9850258B2, “Substituted tetrahydrocarbazole and carbazole carboxamide compounds” (BRISTOL-MYERS SQUIBB COMPANY, priority 2013, dated 2017)
Where two headings read alike, the source gives them in different places.

Legend:
Jak2 tyrosine kinase = Jak2 tyrosine kinase (Homo sapiens (Human), UniProt O60674); experiment: Jak2 Tyrosine Kinase Assay; format: biochemical; details: for IC50: Jak2 tyrosine kinase, ATP 30 μM
human recombinant Btk = human recombinant Btk (Homo sapiens (Human), UniProt Q06187); experiment: Human Recombinant Btk Enzyme Assay; format: biochemical
Chain of human recombinant Btk (Q06187 whole entry): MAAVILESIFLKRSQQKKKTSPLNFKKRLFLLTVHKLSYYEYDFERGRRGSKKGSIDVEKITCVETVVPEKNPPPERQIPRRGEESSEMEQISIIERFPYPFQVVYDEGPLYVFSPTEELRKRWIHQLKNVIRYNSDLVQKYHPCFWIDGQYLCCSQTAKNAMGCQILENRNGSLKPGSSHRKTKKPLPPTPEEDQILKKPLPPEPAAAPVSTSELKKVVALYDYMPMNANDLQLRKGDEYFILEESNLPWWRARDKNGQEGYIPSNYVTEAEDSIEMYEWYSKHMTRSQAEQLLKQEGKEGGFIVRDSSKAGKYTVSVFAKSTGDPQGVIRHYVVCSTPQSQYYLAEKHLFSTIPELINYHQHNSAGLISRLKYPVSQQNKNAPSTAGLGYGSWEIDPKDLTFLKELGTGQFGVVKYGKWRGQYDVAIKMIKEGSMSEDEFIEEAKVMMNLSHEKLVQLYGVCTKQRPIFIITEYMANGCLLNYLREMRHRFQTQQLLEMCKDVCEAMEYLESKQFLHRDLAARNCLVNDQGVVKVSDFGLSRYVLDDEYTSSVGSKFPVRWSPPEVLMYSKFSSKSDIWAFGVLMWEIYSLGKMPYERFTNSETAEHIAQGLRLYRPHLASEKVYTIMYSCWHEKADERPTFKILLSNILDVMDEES

[1] = system: CD69 expression on B cells in human whole blood; experiment: Whole Blood Assay of BCR-Stimulated CD69 Expression on B Cells; format: cell-based

Chain of Jak2 tyrosine kinase (O60674 whole entry): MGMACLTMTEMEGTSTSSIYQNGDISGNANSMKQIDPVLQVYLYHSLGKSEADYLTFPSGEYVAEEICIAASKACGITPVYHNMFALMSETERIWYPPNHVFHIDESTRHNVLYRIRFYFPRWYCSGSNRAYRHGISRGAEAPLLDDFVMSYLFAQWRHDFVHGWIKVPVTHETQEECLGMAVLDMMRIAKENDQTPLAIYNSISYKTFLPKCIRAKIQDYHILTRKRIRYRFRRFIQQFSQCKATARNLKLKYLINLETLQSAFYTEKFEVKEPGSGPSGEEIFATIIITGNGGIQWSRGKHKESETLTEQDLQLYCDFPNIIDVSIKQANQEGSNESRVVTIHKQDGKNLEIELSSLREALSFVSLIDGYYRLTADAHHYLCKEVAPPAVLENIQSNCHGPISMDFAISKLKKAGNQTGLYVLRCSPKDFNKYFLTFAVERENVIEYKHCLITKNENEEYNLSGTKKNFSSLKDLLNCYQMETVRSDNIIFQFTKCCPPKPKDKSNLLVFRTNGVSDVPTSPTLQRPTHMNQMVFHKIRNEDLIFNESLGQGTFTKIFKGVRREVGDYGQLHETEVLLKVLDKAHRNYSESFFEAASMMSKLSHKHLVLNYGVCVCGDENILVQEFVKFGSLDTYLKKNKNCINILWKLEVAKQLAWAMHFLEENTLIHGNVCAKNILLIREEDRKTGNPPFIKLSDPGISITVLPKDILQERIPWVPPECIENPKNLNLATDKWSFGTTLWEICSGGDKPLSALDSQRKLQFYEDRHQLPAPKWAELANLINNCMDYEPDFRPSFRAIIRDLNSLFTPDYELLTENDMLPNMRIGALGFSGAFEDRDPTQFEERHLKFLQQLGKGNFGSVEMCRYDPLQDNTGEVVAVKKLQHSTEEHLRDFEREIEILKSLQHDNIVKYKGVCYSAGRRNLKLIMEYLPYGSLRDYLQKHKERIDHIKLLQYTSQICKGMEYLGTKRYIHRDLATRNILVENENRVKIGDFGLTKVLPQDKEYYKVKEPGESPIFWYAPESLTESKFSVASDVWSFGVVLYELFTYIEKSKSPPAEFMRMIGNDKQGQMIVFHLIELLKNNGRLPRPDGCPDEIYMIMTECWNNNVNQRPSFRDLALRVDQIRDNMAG

What does the source list for Cc1c(-c2c(Cl)cc(C(N)=O)c3[nH]c4cc(C(C)(C)O)ccc4c23)cccc1-n1c(=O)c2ccccc2n(C)c1=O [Example 3, 3-Chloro-7-(2-hydroxypropan-2-yl)-4-(R)-(2-methyl-3-(1-methyl-2,4-dioxo-1,2-dihydroquinazolin-3(4H)-yl)phenyl)-9H-carbazole-1-carboxamide]?
IC50 (Jak2 tyrosine kinase): 2000 nM; Ratio of Jak2/Btk IC50 values (Jak2 tyrosine kinase; selectivity of Btk over Jak2): 2000; IC50 (human recombinant Btk): 1 nM

How did the IC50 (Jak2 tyrosine kinase) turn out when Cc1c(-c2c(Cl)cc(C(N)=O)c3[nH]c4cc(C(C)(C)O)ccc4c23)cccc1-n1c(=O)c2cc(F)ccc2n(C)c1=O [Example 8, 3-Chloro-4-(R)-(3-(6-fluoro-1-methyl-2,4-dioxo-1,2-dihydroquinazolin-3(4H)-yl)-2-methylphenyl)-7-(2-hydroxypropan-2-yl)-9H-carbazole-1-carboxamide] was run?
Its IC50 is greater than 2000 nM.

What about the “Ratio of Jak2/Btk IC50 values” (Jak2 tyrosine kinase; selectivity of Btk over Jak2) of the same compound?
Its value is greater than 3100.

What about the IC50 (human recombinant Btk) of the same compound?
Its IC50 is 0.65 nM.

With Cc1c(-c2c(F)cc(C(N)=O)c3[nH]c4cc(C(C)(C)O)ccc4c23)cccc1-n1c(=O)c2cccc(F)c2n(C)c1=O (atropisomer, axis not shown) [Example 18, 3-Fluoro-4-(3-(S)-(8-fluoro-1-methyl-2,4-dioxo-1,2-dihydroquinazolin-3(4H)-yl)-2-methylphenyl)-7-(2-hydroxypropan-2-yl)-9H-carbazole-1-carboxamide] as the compound, how does the IC50 (Jak2 tyrosine kinase) read?
The IC50 was 2200 nM.

For Cc1c(-c2c(Cl)cc(C(N)=O)c3[nH]c4cc(C(C)(C)O)ccc4c23)cccc1-n1c(=O)ccn(-c2ccc(F)cc2)c1=O [Example 23, 3-Chloro-4-(3-(3-(4-fluorophenyl)-2,6-dioxo-2,3-dihydropyrimidin-1(6H)-yl)-2-methylphenyl)-7-(2-hydroxypropan-2-yl)-9H-carbazole-1-carboxamide], which IC50 (Jak2 tyrosine kinase) is on record?
Its IC50 is 440 nM.

What about the “Ratio of Jak2/Btk IC50 values” (Jak2 tyrosine kinase; selectivity of Btk over Jak2) of the same compound?
The value was 1000.

And the IC50 (human recombinant Btk)?
The IC50 was 0.44 nM.

For Cc1c(-c2c(Cl)cc(C(N)=O)c3[nH]c4cc(C(C)(C)O)ccc4c23)cccc1-n1c(=O)c2cccc(C)c2n(C)c1=O [Example 4, 3-Chloro-4-(R)-(3-(1,8-dimethyl-2,4-dioxo-1,2-dihydroquinazolin-3(4H)-yl)-2-methylphenyl)-7-(2-hydroxypropan-2-yl)-9H-carbazole-1-carboxamide], which IC50 (Jak2 tyrosine kinase) is on record?
The IC50 was 350 nM.

And the “Ratio of Jak2/Btk IC50 values” (Jak2 tyrosine kinase; selectivity of Btk over Jak2)?
Its value is 270.

And the IC50 (human recombinant Btk)?
Its IC50 is 1.3 nM.

CC(C)(O)c1ccc2c(c1)[nH]c1c(C(N)=O)cc(Cl)c(-c3cccc(-n4c(=O)[nH]c5c(F)cccc5c4=O)c3Cl)c12 [Example 47, 3-Chloro-4-(R)-(2-chloro-3-(8-fluoro-2,4-dioxo-1,2-dihydroquinazolin-3(4H)-yl)phenyl)-7-(2-hydroxypropan-2-yl)-9H-carbazole-1-carboxamide] was tested. Which IC50 (Jak2 tyrosine kinase) did it give?
Its IC50 is 1800 nM.

What about the “Ratio of Jak2/Btk IC50 values” (Jak2 tyrosine kinase; selectivity of Btk over Jak2) of the same compound?
Its value is 5100.

What about the IC50 (human recombinant Btk) of the same compound?
The IC50 was 0.35 nM.

With Cc1c(-c2c(F)cc(C(N)=O)c3[nH]c4cc(C(C)(C)O)ccc4c23)cccc1-n1c(=O)[nH]c2c(F)cc(F)cc2c1=O (single isomer, unassigned) [Example 73] as the compound, how does the IC50 ([1]; Homo sapiens, B-cell) read?
Its IC50 is 21 nM.

Cn1c(=O)n(-c2cccc(-c3c(Cl)cc(C(N)=O)c4[nH]c5cc(C(C)(C)O)ccc5c34)c2Cl)c(=O)c2cccc(F)c21 [Example 44, 3-Chloro-4-(2-chloro-3-(8-fluoro-1-methyl-2,4-dioxo-1,2-dihydroquinazolin-3(4H)-yl)phenyl)-7-(2-hydroxypropan-2-yl)-9H-carbazole-1-carboxamide] was tested. Which IC50 (human recombinant Btk) did it give?
Its IC50 is 4.7 nM.

How did the IC50 (human recombinant Btk) turn out when Cn1c(=O)n(-c2cccc(-c3c(Cl)cc(C(N)=O)c4[nH]c5cc(C(C)(C)O)ccc5c34)c2Cl)c(=O)c2ccccc21 [Example 43, 3-Chloro-4-(R)-(2-chloro-3-(1-methyl-2,4-dioxo-1,2-dihydroquinazolin-3(4H)-yl)phenyl)-7-(2-hydroxypropan-2-yl)-9H-carbazole-1-carboxamide] was run?
The IC50 was 0.47 nM.

For Cn1c(=O)n(-c2cccc(-c3c(Cl)cc(C(N)=O)c4[nH]c5cc(C(C)(C)O)ccc5c34)c2Cl)c(=O)c2ccccc21 [Example 42, 3-Chloro-4-(2-chloro-3-(1-methyl-2,4-dioxo-1,2-dihydroquinazolin-3(4H)-yl)phenyl)-7-(2-hydroxypropan-2-yl)-9H-carbazole-1-carboxamide], which IC50 (human recombinant Btk) is on record?
The IC50 was 2 nM.

For Cc1c(-c2c(F)cc(C(N)=O)c3[nH]c4cc(C(C)(C)O)ccc4c23)cccc1-n1c(=O)[nH]c2c(F)cccc2c1=O [Example 20, 3-Fluoro-4-(3-(8-fluoro-2,4-dioxo-1,2-dihydroquinazolin-3(4H)-yl)-2-methylphenyl)-7-(2-hydroxypropan-2-yl)-9H-carbazole-1-carboxamide], which IC50 (Jak2 tyrosine kinase) is on record?
The IC50 was 1200 nM.

And the “Ratio of Jak2/Btk IC50 values” (Jak2 tyrosine kinase; selectivity of Btk over Jak2)?
Its value is 2600.

What about the IC50 (human recombinant Btk) of the same compound?
Its IC50 is 0.46 nM.

Cc1c(-c2c(F)cc(C(N)=O)c3[nH]c4cc(C(C)(C)O)ccc4c23)cccc1-n1c(=O)c2cccc(F)c2n(C)c1=O [Example 17, 3-Fluoro-4-(3-(8-fluoro-1-methyl-2,4-dioxo-1,2-dihydroquinazolin-3(4H)-yl)-2-methylphenyl)-7-(2-hydroxypropan-2-yl)-9H-carbazole-1-carboxamide] was tested. Which IC50 (Jak2 tyrosine kinase) did it give?
The IC50 was 170 nM.

Which results are given for COc1cccc2c(=O)n(-c3cccc(-c4c(Cl)cc(C(N)=O)c5[nH]c6cc(C(C)(C)O)ccc6c45)c3C)c(=O)n(C)c12 [Example 7, 3-Chloro-7-(2-hydroxypropan-2-yl)-4-(R)-(3-(8-methoxy-1-methyl-2,4-dioxo-1,2-dihydroquinazolin-3(4H)-yl)-2-methylphenyl)-9H-carbazole-1-carboxamide]?
IC50 (Jak2 tyrosine kinase): 1600 nM; Ratio of Jak2/Btk IC50 values (Jak2 tyrosine kinase; selectivity of Btk over Jak2): 2000; IC50 (human recombinant Btk): 0.81 nM

How did the IC50 (Jak2 tyrosine kinase) turn out when Cc1cc(C(N)=O)c2[nH]c3cc(C(C)(C)O)ccc3c2c1-c1cccc(-n2c(=O)c3cccc(F)c3n(C)c2=O)c1C (atropisomer, axis not shown) [Example 29, 4-(R)-(3-(S)-(8-Fluoro-1-methyl-2,4-dioxo-1,2-dihydroquinazolin-3(4H)-yl)-2-methylphenyl)-7-(2-hydroxypropan-2-yl)-3-methyl-9H-carbazole-1-carboxamide] was run?
The IC50 was 790 nM.

And the IC50 (human recombinant Btk)?
The IC50 was 0.66 nM.

With Cc1c(-c2c(Cl)cc(C(N)=O)c3[nH]c4cc(C(C)(C)O)ccc4c23)cccc1-n1c(=O)ccn(-c2ccc(F)cc2)c1=O [Example 24, 3-Chloro-4-(R)-(3-(3-(4-fluorophenyl)-2,6-dioxo-2,3-dihydropyrimidin-(6H)-yl)-2-methylphenyl)-7-(2-hydroxypropan-2-yl)-9H-carbazole-1-carboxamide] as the compound, how does the IC50 (Jak2 tyrosine kinase) read?
Its IC50 is 1800 nM.

What about the “Ratio of Jak2/Btk IC50 values” (Jak2 tyrosine kinase; selectivity of Btk over Jak2) of the same compound?
The value was 5500.

What about the IC50 (human recombinant Btk) of the same compound?
The IC50 was 0.33 nM.

What does the source list for Cc1c(-c2c(F)cc(C(N)=O)c3[nH]c4cc(C(C)(C)O)ccc4c23)cccc1-n1c(=O)c2cccc(F)c2n(C)c1=O (atropisomer, axis not shown) [Example 19, 3-Fluoro-4-(R)-(3-(S)-(8-fluoro-1-methyl-2,4-dioxo-1,2-dihydroquinazolin-3(4H)-yl)-2-methylphenyl)-7-(2-hydroxypropan-2-yl)-9H-carbazole-1-carboxamide]?
IC50 (Jak2 tyrosine kinase): 2000 nM; IC50 [1]: 91 nM

What does the source list for Cc1c(-c2c(Cl)cc(C(N)=O)c3[nH]c4cc(C(C)(C)O)ccc4c23)cccc1-n1c(=O)[nH]c2c(F)cc(F)cc2c1=O (racemic) [Example 10, 3-Chloro-4-(RS)-(3-(RS)-(6,8-difluoro-2,4-dioxo-1,2-dihydroquinazolin-3(4H)-yl)-2-methylphenyl)-7-(2-hydroxypropan-2-yl)-9H-carbazole-1-carboxamide]?
IC50 (Jak2 tyrosine kinase): > 2000 nM; Ratio of Jak2/Btk IC50 values (Jak2 tyrosine kinase; selectivity of Btk over Jak2): >2400; IC50 (human recombinant Btk): 0.83 nM

How did the IC50 (Jak2 tyrosine kinase) turn out when Cc1c(-c2c(Cl)cc(C(N)=O)c3[nH]c4cc(C(C)(C)O)ccc4c23)cccc1-n1c(=O)c2ccc(F)cc2n(C)c1=O [Example 9, 3-Chloro-4-(R)-(3-(7-fluoro-1-methyl-2,4-dioxo-1,2-dihydroquinazolin-3(4H)-yl)-2-methylphenyl)-7-(2-hydroxypropan-2-yl)-9H-carbazole-1-carboxamide] was run?
Its IC50 is greater than 2000 nM.

What about the “Ratio of Jak2/Btk IC50 values” (Jak2 tyrosine kinase; selectivity of Btk over Jak2) of the same compound?
The value was greater than 3200.

And the IC50 (human recombinant Btk)?
Its IC50 is 0.62 nM.

For Cc1nc(C(N)=O)c2[nH]c3cc(C(C)(C)O)ccc3c2c1-c1cccc(-n2cnc3ccccc3c2=O)c1C [Comparative Example 76, 7-(2-Hydroxypropan-2-yl)-3-methyl-4-(2-methyl-3-(4-oxoquinazolin-3(4H)-yl)phenyl)-9H-pyrido[3,4-b]indole-1-carboxamide, reference compound], which “Ratio of Jak2/Btk IC50 values” (Jak2 tyrosine kinase; kinase selectivity of Btk over Jak2, larger value = more selective for Btk) is on record?
Its value is 29.
